Reference: patent US5750509A, “Amide derivatives of antibiotic A 40926” (Gruppo Lepetit S.p.A., priority 1991, dated 1998)

Key:
[1] = system: Staph. haemolyticus L 602; assay: MIC, microbroth dilution, Staph. haemolyticus L 602; type: cell-based; conditions: Table II
[2] = system: Enterococcus faecium L 1680; assay: MIC, glycopeptide-resistant Enterococcus faecium L 1680; type: cell-based
[3] = system: Staph. aureus L 561; assay: MIC, microbroth dilution, Staph. aureus L 561; type: cell-based; conditions: Table II
[4] = system: Esch. coli L 47; assay: MIC, microbroth dilution, Esch. coli L 47; type: cell-based; conditions: Table II
[5] = system: highly glycopeptide-resistant enterococci; assay: in vitro activity against highly glycopeptide-resistant enterococci (summary); type: cell-based
[6] = system: Enterococcus faecalis L 563; assay: MIC, glycopeptide-resistant Enterococcus faecalis L 563; type: cell-based; conditions: Table III
[7] = system: Strep. pyogenes C 203; assay: experimental streptococcal septicemia in mice; type: in vivo; conditions: Strep. pyogenes C 203 septicemia, adm. route sc
Description: The experiments have been carried out according to the procedure described by V. Arioli et al., Journal of Antibiotics 29, 511 (1976).

[8] = system: Enterococcus faecium L 1650; assay: MIC, glycopeptide-resistant Enterococcus faecium L 1650; type: cell-based
[9] = system: Enterococcus faecium L 1686; assay: MIC, glycopeptide-resistant Enterococcus faecium L 1686; type: cell-based
[10] = system: Neisseria gonorrh. L 997; assay: MIC, microbroth dilution, Neisseria gonorrh. L 997; type: cell-based, Neisseria gonorrhoeae; conditions: Table II
[11] = system: Enterococcus faecium L 1681; assay: MIC, glycopeptide-resistant Enterococcus faecium L 1681; type: cell-based
[12] = system: Enterococcus faecium L 564; assay: MIC, glycopeptide-resistant Enterococcus faecium L 564; type: cell-based
[13] = system: Staph. epidermidis L 147; assay: MIC, microbroth dilution, Staph. epidermidis L 147; type: cell-based; conditions: Table II
[14] = system: Enterococcus faecium L 1652; assay: MIC, glycopeptide-resistant Enterococcus faecium L 1652; type: cell-based
[15] = system: Staph. epidermidis L 533; assay: MIC, microbroth dilution, Staph. epidermidis L 533; type: cell-based; conditions: Table II
[16] = system: Enterococcus faecalis L 560; assay: MIC, glycopeptide-resistant Enterococcus faecalis L 560; type: cell-based; conditions: Table III
[17] = system: Strep. pyogenes L 49; assay: MIC, microbroth dilution, Strep. pyogenes L 49; type: cell-based; conditions: Table II
[18] = system: Staph. aureus L 165; assay: MIC, microbroth dilution, Staph. aureus L 165; type: cell-based; conditions: Table II
[19] = system: Strep. pneumoniae L 44; assay: MIC, microbroth dilution, Strep. pneumoniae L 44; type: cell-based; conditions: Table II
[20] = system: Entero. faecalis L 149; assay: MIC, microbroth dilution, Entero. faecalis L 149; type: cell-based; conditions: Table II
[21] = system: Enterococcus faecium L 1666; assay: MIC, glycopeptide-resistant Enterococcus faecium L 1666; type: cell-based
[22] = system: Entero. faecalis L 562; assay: MIC, microbroth dilution, Entero. faecalis L 562; type: cell-based, Enterococcus faecalis
[23] = system: Proteus vulgaris L 79; assay: MIC, microbroth dilution, Proteus vulgaris L 79; type: cell-based; conditions: Table II
[24] = system: Enterococcus faecium L 565; assay: MIC, glycopeptide-resistant Enterococcus faecium L 565; type: cell-based
[25] = system: Pseudomonas aerug. L 4; assay: MIC, microbroth dilution, Pseudomonas aerug. L 4; type: cell-based; conditions: Table II
[26] = system: Enterococcus faecium L 1683; assay: MIC, glycopeptide-resistant Enterococcus faecium L 1683; type: cell-based
[27] = system: Enterococcus faecium L 569; assay: MIC, glycopeptide-resistant Enterococcus faecium L 569; type: cell-based

teicoplanin
4 µg/mL: MIC [13]
0.16 mg/kg: ED50 [7]
8 µg/mL: MIC [3] | MIC [15]
32 µg/mL: MIC [1] | MIC [10]
0.25 µg/mL: MIC [18]
> 128 µg/mL: MIC ([2]; Enterococcus faecium L 1680, Table III) | MIC [4] | MIC [6] | MIC ([8]; Enterococcus faecium L 1650, Table III) | MIC ([9]; Enterococcus faecium L 1686, Table III) | MIC ([11]; Enterococcus faecium L 1681, Table III) | MIC ([12]; Enterococcus faecium L 564, Table III) | MIC ([14]; Enterococcus faecium L 1652, Table III) | MIC [16] | MIC ([21]; Enterococcus faecium L 1666, Table III) | MIC ([22]; Entero. faecalis L 562, Table II) | MIC ([22]; Enterococcus faecalis L 562, Table III) | MIC [23] | MIC ([24]; Enterococcus faecium L 565, Table III) | MIC [25] | MIC ([26]; Enterococcus faecium L 1683, Table III) | MIC ([27]; Enterococcus faecium L 569, Table III)
highly resistant: in vitro activity / resistance in words [5]
0.06 µg/mL: MIC [19]
0.13 µg/mL: MIC [17] | MIC [20]

CN[C@H](CC(C)C)C(=O)N[C@H]1C(=O)N[C@@H](CC(N)=O)C(=O)N[C@H]2C(=O)N[C@H]3C(=O)N[C@H](C(=O)N[C@H](C(=O)O)c4cc(O)cc(O)c4-c4cc3ccc4O)[C@H](O)c3ccc(c(Cl)c3)Oc3cc2cc(c3O[C@@H]2O[C@H](CO)[C@@H](O)[C@H](O)[C@H]2O[C@H]2C[C@](C)(N)[C@H](O)[C@H](C)O2)Oc2ccc(cc2Cl)[C@H]1O [VANCOMYCIN, vancomycin]
> 128 µg/mL: MIC ([2]; Enterococcus faecium, L1680) | MIC ([8]; Enterococcus faecium, L1650) | MIC ([9]; Enterococcus faecium, L1686) | MIC ([11]; Enterococcus faecium, L1681) | MIC ([12]; Enterococcus faecium, L564) | MIC ([14]; Enterococcus faecium, L1652) | MIC ([21]; Enterococcus faecium, L1666) | MIC ([22]; Enterococcus faecalis, L562) | MIC ([24]; Enterococcus faecium, L565) | MIC ([26]; Enterococcus faecium, L1683) | MIC ([27]; Enterococcus faecium, L569)
highly resistant: in vitro activity / resistance in words [5]
